US20260284082A1, “TARGETING THE PANX1-P2Y2R-TRPV4 PATHWAY TO TREAT LUNG ISCHEMIA-REPERFUSION INJURY” (UNIVERSITY OF VIRGINIA PATENT FOUNDATION, priority 2023, published 2026)

Columns and labels:
[1] = test system: pulmonary endothelium of small PAs; experiment: Baseline endothelial Ca2+ signaling in en face small PAs after lung IR (Fluo-4 confocal imaging); type: cell-based, mice; conditions: apyrase 10 U/mL; small PAs after lung IR
Protocol: (§1) Murine lung IR model: A well-established left lung IRI model involving temporary in vivo ligation of the left hilum (pulmonary artery, vein, and airway) was used.^6 Briefly, mice were anesthetized with inhaled isoflurane, intubated, ventilated with room air at 150 strokes/min with a tidal volume of […] (Harvard Apparatus Co, South Natick, MA), and heparinized (20 U/kg: Hospira Inc, Lake Forest, IL). An anterolateral thoracotomy was performed through the fourth intercostal space to expose the left hilum. A 6-0 Prolene suture (Ethicon. Somerville, NJ) was passed around the left hilum, and the suture ends were passed through a 5-mm length of polyethylene (PE)-50 tubing. A surgical clip was used to fashion a Rummel tourniquet to provide temporary occlusion of the left hilar structures. The thoracotomy was closed, anesthesia was weaned, and analgesia was administered (intraperitoneal buprenorphine. 0.2 mg/kg). Animals recovered in their cages during the 1-hour ischemic period, after which they were anesthetized again and intubated, the Rummel tourniquet was removed, and the thoracotomy was closed. Animals were again extubated, recovered in their cage, and monitored during the 2-hour reperfusion period. Sham animals underwent the same surgical procedure except that application of the Rummel tourniquet to induce ischemia was omitted; thus, these animals were perfused for a total of 3 hours.
Ca^2+ imaging in Pas: Ca^2+ imaging in small Pas was performed as previously described.8 Fourth-order, small (~50 μm diameter) Pas (see FIG. 1B) were dissected from left lungs in cold HEPES-buffered physiological salt solution (HEPES-PSS; 10 mM HEPES, 134 mM NaCl, 6 mM KCl, 1 mM MgCl2 hexahydrate, 2 mM CaCl2) dihydrate, and 7 mM dextrose; pH adjusted to 7.4 using 1 M NaOH). […] Fluo-4 was excited using a 488-nm solid-state laser, and emitted fluorescence was captured using a 525/36-nm band-pass filter. […] Baseline Ca^2+ signaling activity was recorded in the absence of CPA. […]

[2] = test system: TRPV4EC channels; experiment: TRPV4 sparklet activity in endothelium of small PAs after lung IR (in presence of CPA); type: cell-based, mice; conditions: apyrase 10 U/mL; small PAs after lung IR
Protocol: as §1, with “Sham animals underwent the same surgical procedure except that application of the Rummel tourniquet to induce ischemia was omitted; thus, these animals were perfused for a total of 3 hours.” left out
Ca^2+ imaging in Pas: Ca^2+ imaging in small Pas was performed as previously described.8 Fourth-order, small (~50 μm diameter) Pas (see FIG. 1B) were dissected from left lungs in cold HEPES-buffered physiological salt solution (HEPES-PSS; 10 mM HEPES, 134 mM NaCl, 6 mM KCl, 1 mM MgCl2 hexahydrate, 2 mM CaCl2) dihydrate, and 7 mM dextrose; pH adjusted to 7.4 using 1 M NaOH). […] Fluo-4 was excited using a 488-nm solid-state laser, and emitted fluorescence was captured using a 525/36-nm band-pass filter. […] Baseline Ca^2+ signaling activity was recorded in the absence of CPA.
TRPV4 sparklets were assessed as increases in fluorescence relative to baseline fluorescence, obtained by averaging 10 quiescent images prior to stimulation. […]

[3] = test system: TRPV4 channels; conditions: CPA 20 μM as used; cited from earlier work
[4] = human, in vivo; cited from earlier work
[5] = test system: eATP efflux through Panx1 channels; experiment: Luciferase assay for eATP release from small PAs; type: cell-based, mouse; conditions: GSK101 10 nM
Protocol: Luciferase assay for total ATP release: Small Pas were cut open and pinned down en face on a Sylgard block. Pas were then placed in black, opaque 96-well plates and incubated in HEPES-PSS for 10 minutes at 37° C., followed by incubation with the ectonucleotidase inhibitor ARL 67156 (300 μmol/L; Tocris Bioscience, Minneapolis, MN) for 30 minutes at 37° C. A 50-μL aliquot of each sample was transferred to another black, opaque 96-well plate, and ATP was measured using an ATP Bioluminescence HSII kit (Roche Applied Science, Penzberg, Germany).^5 Briefly, 50 μL of the luciferase reagent, luciferin, provided in the assay kit (Roche Applied Science), was added to each well and. following a 5-second orbital mix, luminescence was recorded using a luminometer (FluoStar Omega). ATP concentrations were calculated by reference to an ATP standard curve.

apyrase
IR-induced increase in baseline Ca2+ signaling activity [1]: abolished | IR-induced increase in TRPV4EC channel activity [2]: abolished

CC(=O)C1=C(O)[C@@H]2[C@H]3c4c[nH]c5cccc(c45)C[C@H]3C(C)(C)N2C1=O [CPA, Cyclopiazonic acid]
effect of CPA by itself on activity of TRPV4 channels [3]: does not alter

CC(C)(O)c1cnc(N2C[C@@]3(CCC[C@](C)(Cn4cnc5ccc(C#N)cc54)C3)OC2=O)cn1 [GSK2798745]
tolerability [4]: well tolerated

CC(C)C[C@H](NC(=O)c1cc2ccccc2s1)C(=O)N1CCN(C(=O)[C@H](CO)NS(=O)(=O)c2ccc(Cl)cc2Cl)CC1 [GSK101, GSK1016790A]
eATP efflux through Panx1 channels (eATP release from small PAs) [5]: increased
